Tested on: differentiated human keratinocytes
Experiment: in vitro screening of an active agent on desquamation (release of corneocytes, cellular detachment index by flow cytometry)
Assay type: cell-based
Settings: for % of activity relative to the control (cellular detachment index, difference between T60 and T0): compounds at 5 × 10^−5M, 60 minutes after addition, control = identical culture in the absence of compound
Experimental: This test of in vitro screening of an active agent on desquamation was carried out on differentiated human keratinocytes. The principle of the test was based on the fact that desquamation induces the release of corneocytes. The desquamating power of the product tested will be proportionately greater the larger the number of corneocytes released.
The test procedure was as follows: starting with human skin biopsies, the keratinocytes obtained by separation of the epidermis were dissociated by enzymatic action with trypsin and were cultured at a concentration of 2×10^5 cells/ml. Growth and differentiation of the keratinocytes were obtained by culturing for 10 to 20 days in a specific medium. Next, after removing the culture medium, the activity of the test product was evaluated. To do this, two samples were taken at T0 and T60, i.e., just before adding the product and 60 minutes after this addition. The samples thus taken were analyzed with a flow cytometer in order to count the corneocyte population. The flow cytometer made it possible to distinguish the corneocyte and keratinocyte populations by treatment with acridine orange, which is specific for cellular DNA.
The cellular detachment index was determined by the difference between T60 and T0.
The test was carried out with cinnamic acid at a concentration of 5×10^−5M.
The results are given as a % of activity relative to the control consisting of an identical culture in the absence of compound.

| SMILES | activity on the cellular detachment (cinnamic acid at 5×10^−5M) | % of activity relative to the control (cellular detachment index, difference between T60 and T0) |
| --- | --- | --- |
| O=C(O)C=Cc1ccccc1 [Cinnamic acid] | high | 59.2% |
| CCCCCCCC(=O)c1ccc(O)c(C(=O)O)c1 [Reference, 2-hydroxy-5-octanoylbenzoic acid, reference compound] |  | 96.6% |
